Results from patent US7713960B2, “Inhibition of the Raf/Mek/P-Erk pathway for treating cancer” (University of South Florida, priority 2005, dated 2010).
Where a name gives a salt, the structure may show the parent alone.

Tests used:
MDA-MB-231 cells [1] = assay: Total cellular cAMP measurement, MDA-MB-231; type: cell-based, human
Description: Total cellular cAMP measurement—The measurement of total cellular cAMP was done using a cAMP Biotrak ™ Enzymeimmunoassay (EIA) system (Amersham Biosciences, Piscataway, N.J.) according to the manufacturer's protocol. Briefly, 2000 cells were plated into each well of a 96 well plate. The next day cells were treated with increasing concentrations of ARA-211 or with vehicle for one hour. Alternatively, MDA-MB-231 cells were pre-treated with antagonists to the α1 (Prazosin, Sigma), α2 (Yohimbine, Sigma), β1 (Metoprolol, Sigma), and β2 (ICI 118.551, Sigma) adrenergic receptors at 100 nM for 15 minutes followed by treatment with 10 μM ARA-211 for 45 minutes. Cells were then lysed directly in the wells using the supplied lysis buffer. The lysate was transferred to a 96-well cAMP ELISA plate, and results were quantified using a Wallac Victor 2 plate reader.

MDA-MB-231 cells [2] = assay: Immunohistochemistry of MDA-MB-231 xenograft tumors (P-Erk 1/2, Tunel, Ki-67); type: in vivo, nude mice; details: 75 mpk/day, tumors removed on day 12
Excerpt: Anti-tumor activity in nude mouse xenograft model—Female athymic nude (nu/nu) mice, 5-6 weeks old, were purchased from Charles River (Wilmington, Mass.) and allowed to acclimate in the animal facility for one week. After harvesting, A-549, SNB-19, ACHN, and HCT-116 cells were, resuspended in sterile PBS, and injected s.c. into the right and left flanks (10×10^6 cells per flank) of the mice as previously described (Sun et al., 2005). For MDA-MB-231, cells were harvested and resuspended in PBS (10×10^6 cells per 50 μl) and an equal volume of Matrigel (BD Biosciences, San Jose, Calif.). 100 μl of MDA-MB-231 cells in PBS/Matrigel were injected s.c. into the mammary fat pads between the 2nd and 3rd nipples on each side of the mice. Once the tumors reached approximately 200-300 mm^3 the mice were randomized and treated i.p. with 0.1 ml vehicle (PBS) or ARA-211. Each treatment group consisted of five mice (2 tumors per mouse, a total of 10 tumors). The tumor volumes were determined by measuring the length (l) and width (w) and calculating the volume (V=w^2l/2). Statistical significance between the control and treated animals was determined using a student's t test. Immunohistochemisty (IHC) and slide quantitation—Upon completion of the xenograft study, mice were euthanized and the tumors were removed and fixed in 10% buffered formalin for at least 24 hours. […] The IHC slides were analyzed at the Analytical Microscopy Core facility of the H. Lee Moffitt Cancer Center & Research Institute. The Ariol SL-50 automated image analysis system (Applied Imaging, Santa Clara, Calif.) was used for quantitation of each slide as previously described (Jiang et al., 2004). Briefly, high-resolution digital pictures were taken of the entire stained area of each slice of tumor tissue for automatic staining quantitation. […] Each slide analyzed consisted of 54,000 to 160,000 cells analyzed depending on the size of the tumor when resected. Significance of the quantitation was analyzed by a two-tailed student's t-test.

P-Erk 1/2 = P-Erk 1/2 levels (Western blotting), HCT-116; type: cell-based, human
Description: Western Blotting—Treated cell samples were lysed in 30 mM HEPES, 10 mM NaCl, 5 mM MgCl2, 25 mM NaF, 1 mM EGTA, 1% Triton-X-100, 10% Glycerol, 2 mM Sodium orthovanidate, 10 μg/mL aprotinin, 10 μg/mL soybean trypsin inhibitor, 25 μg/mL leupeptin, 2 mM phenylmethylsulfonylfluoride (PMSF), 6.4 mg/mL p-nitrophenylphosphate for 30 minutes at 4° C., and proteins run on SDS-PAGE gels then transferred to nitrocellulose membranes. Membranes were blocked in either 5% milk in PBS, pH 7.4, containing 0.1% Tween-20 (PBS-T) or 1% BSA in TBS, pH 7.5, containing 0.1% Tween-20 (TBS-T). Phospho-STAT3 and phospho-AKT antibodies were diluted in 1% BSA in TBS-T while phospho-c-Raf, phospho-Mek, and phospho-p44/p42 MAPK antibodies (Cell Signaling) were diluted in 5% milk in PBS-T for either 1 hour at room temperature or overnight at 4° C. HRP-conjugated secondary antibodies (Jackson ImmunoResearch, West Grove, Pa.) were diluted in 5% milk in PBS-T or TBS-T at a 1:1000 dilution for one hour at room temperature. Western blots results were visualized using enhanced chemiluminescence. Stripping of the membranes for reblotting was done using stripping buffer (62.5 mM Tris pH 7.6, 2% SDS, 0.7% 2-mercaptoethanol) at 50° C. for 30 minutes.

MDA-MB-231 cells [3] = assay: Anchorage-dependent growth (MTT assay), MDA-MB-231; type: cell-based, human
Description: MTT Assay—2000 cells per well were plated into 96 well tissue culture plates, and the cells were allowed to attach overnight at 37° C. with 10% CO2. Cells were then treated with increasing concentrations of ARA-211, or vehicle (DMSO) and incubated for four days. At that time treatment medium was removed and replaced with 100 μl of lmg/ml MTT (Sigma-Aldrich, St. Louis, Mo.) in media and incubated at 37° C., 10% CO2 for 3 hours. After 3 hours the MTT media was removed and replaced with 100 μl/well of DMSO, rocked at room temperature for 5 minutes, then absorbance read at 540 nm on a micro-plate reader.

## CC(C)(C)NCC(O)c1ccc(O)c(CO)n1 (centres unmarked) [ARA-211, 2-hydroxymethyl-3-hydroxy-6-(1-hydroxy-2-tert-butylaminoethyl) pyridine, dihydrochloride]
MDA-MB-231 cells [1]
  cAMP (Fold Induction): 16.7 ± 5.4 Fold
  formation of cAMP: induced the formation of CAMP
MDA-MB-231 cells [1]; β1, β2, α1, α2 antagonists 100 nM pre-treatment, 10 μM ARA-211
  adrenergic receptor selectivity (which antagonist blocks cAMP induction): highly selective for β2 adrenergic receptors
MDA-MB-231 cells [2]
  P-Erk 1/2 levels in tumors (IHC): suppresses P-Erk 1/2 levels
  apoptosis in tumors (Tunel): induces apoptosis
  tumor cell proliferation in tumors (Ki-67): inhibits tumor cell growth
P-Erk 1/2
  P-Erk ½ (% Inhibition): 0%
MDA-MB-231 cells [3]
  Anchorage Dependent Growth (% Inhibition): 60.6 ± 6.5%
